# Test results published in patent publication US11730795B2, “Pharmaceuticals and dosing means for human aging reversal” (INTERVENE IMMUNE, INC., priority 2017, dated 2023).
# Experiments:
# insulin = assay type: in vivo, human; conditions: for control of GH-induced hyperinsulinemia by single agent: each agent alone with GH
# From the text: (§1) Data variability was minimized and controlled by using each volunteer as their own control, and by standardizing the time and day of blood sampling. Blood was generally collected between 7 AM and 10 AM to avoid the effects of circadian and other temporal influences. In addition, patients standardized their pre-testing evening meal, used consistent testing sites and methods, and were redundantly tested between pre-established time points in some cases. All volunteers were asked to take supplements of 3000 IU vitamin D3 and 50 mg of elemental zinc daily. Further, volunteers were instructed not to consume food or alcohol within 4 hours of medication administration.
# (§2) The initial dose of GH was 0.015 mg/kg, injected subcutaneously into superficial abdominal fat using a provided “pen” injector designed for this purpose. GH doses were varied over the time course described above so as to maximize IGF1, and were not adjusted for any changes in body weight.
# Here, for context, insulin blood levels are expressed as a fraction of the distance from the bottom of the normal range to the top of the normal range. Although insulin control was not perfect, the final increase in insulin at trial end was acceptable based on volunteers averaging about one fifth of the upper limit for insulin. […] . Insulin and the normal insulin range were as reported by Quest Diagnostics.
# prostate = test: Report of one individual: prostatic hypertrophy with DHEA; assay type: in vivo, human
# From the text: Accordingly, our results, methods, and medication compositions and combinations enable beneficial new treatments to improve human health and enable beneficial new drug indications.
# [1] = 50 mg per day, 65-75 year old men, no GH, ref [46]; cited from earlier work
# [2] = TRIIM trial: testosterone levels and benign prostatic hypertrophy under DHEA; conditions: with GH or GH plus metformin
# From the text: Nine normal, putatively healthy 50-65 year-old male volunteers with normal age-related thymic involution were enrolled in and completed a clinical study performed under an IND from the US Food and Drug Administration and separate supervision from a California Institutional Review Board. […] The TRIIM trial (standing for Thymus Regeneration, Immunorestoration, and Insulin Mitigation) treatment period was limited to 12 months. Exclusion criteria included GH use in the prior 10 years, carpal tunnel syndrome, malignancies or high risk of malignancy, BMI greater than 30, PSA above the age-adjusted range, symptomatic prostatic hypertrophy, unstable metabolic disorders, unstable cardiovascular disorders, elevated levels of inflammatory markers, alcoholism, allergy to study medications, cognitive impairment, abnormal metabolic or hormonal results, existing type 1 or type 2 diabetes, or other unstable medical conditions.
# [3] = Tolerability of high metformin doses; assay type: in vivo, human
# Procedure: We were able to use higher doses with minimal to no difficulty by devising the following dosing methods.
# In these methods, “dinner” need not be taken literally, the essence of the concept being to essentially administer a large virtual dose by combining two smaller doses that are administered within an effective time span, which may be 1-5 hours in duration, but preferably 1-2 hours in duration, to reduce side effects such as gastric distress while still enabling increased control of hyperinsulinemia.
# epigenetic age = conditions: women, ref [35]; cited from earlier work
# CD4/CD8 cell ratio = test: TRIIM trial: CD4/CD8 cell ratio; assay type: in vivo, human; conditions: peak at 3, 6-9 or 12 months in different men; one non-responder
# From the text: as §1, §2
# The decline of CD4/CD8 cell ratio with aging is a classical indication of the “immune risk phenotype” or immunosenescence, and appears to occur with or without chronic viral exposure and has been a strong predictor of the short-term risk of death. Our results therefore indicate that prior art methods of regenerating the thymus require improvement. […]
compound,measurement,setting,value
"C[C@]12CC[C@H](O)CC1=CC[C@@H]1[C@@H]2CC[C@]2(C)C(=O)CC[C@@H]12 [DHEA, dehydroepiandrosterone]",control of GH-induced hyperinsulinemia by single agent,insulin,neither agent alone was sufficient
same,prostatic hypertrophy,prostate; DHEA alone or in combination with metformin,caused immediate and significant prostatic hypertrophy
same,prostatic hypertrophy,prostate; DHEA in combination with both metformin and GH,actually reversed
same,glucose tolerance,[1],improve glucose tolerance
same,raising of testosterone levels,[2]; doses up to 200 mg,not found
same,induction of benign prostatic hypertrophy,[2],not found
CN(C)C(=N)N=C(N)N [metformin],control of GH-induced hyperinsulinemia,"insulin; 850-1200 mg metformin, morning after GH dose, even with DHEA",very insufficient
same,control of GH-induced hyperinsulinemia by single agent,insulin,neither agent alone was sufficient
same,tolerability,"[3]; 500 mg with dinner plus 1000 mg with HGH and DHEA, total 1500 mg",universally well tolerated
same,tolerability,"[3]; 1500 mg at dinner plus 1000 mg with DHEA and HGH at bedtime, 2500 mg",well tolerated
same,tolerability,[3]; 1500 or 2000 mg in one dose with GH at bedtime,well tolerated
same,effect on epigenetic aging,epigenetic age,not shown to either slow or reverse epigenetic aging
human growth hormone [GH],course of CD4/CD8 cell ratio,CD4/CD8 cell ratio,"peaks in the face of a constant or an increasing dose of GH or rise in IGF-1, and thereafter declines"
same,insulin level with GH alone,insulin; in vivo,rise in insulin
